# Data taken from PubChem BioAssay (NCI).
#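 Five concentrations, 48 hours, 96-well plates. Definition used: TGI = concentration required for complete inhibition of growth.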
# Legend:
# Assay in all cases: growth of human tumour cells (NCI), 48 h
# [1] = system: CAKI-1 renal
# [2] = system: CCRF-CEM leukemia
# [3] = system: COLO 205 colon
# [4] = system: DMS 114 small cell lung
# [5] = system: DMS 273 small cell lung
# [6] = system: EKVX NSCLC
# [7] = system: HCT-116 colon
# [8] = system: HOP-62 NSCLC
# [9] = system: HOP-92 NSCLC
# [10] = system: IGROV1 ovarian
# [11] = system: KM20L2 colon
# [12] = system: M19-MEL melanoma
# [13] = system: NCI-H522 lung
# [14] = system: OVCAR-3 ovarian
# [15] = system: RXF 393 renal
# [16] = system: SK-MEL-2 melanoma
# [17] = system: SK-MEL-5 melanoma
# [18] = system: SK-OV-3 ovarian
# [19] = system: SNB-19 CNS
# [20] = system: UACC-62 melanoma
Compound,TGI [1],TGI [2],TGI [3],TGI [4],TGI [5],TGI [6],TGI [7],TGI [8],TGI [9],TGI [10],TGI [11],TGI [12],TGI [13],TGI [14],TGI [15],TGI [16],TGI [17],TGI [18],TGI [19],TGI [20]
COC(=O)c1nc(-c2ccc3c(n2)C(=O)C(N)=C(OC)C3=O)c(N)c(-c2ccc(OC)c(OC)c2O)c1C,3.28 µM,> 100 µM,3.61 µM,2.31 µM,1.46 µM,7.95 µM,2.14 µM,0.487 µM,5.79 µM,4.77 µM,5.97 µM,1.26 µM,2.43 µM,1.66 µM,3.55 µM,3.26 µM,1.96 µM,3.73 µM,2.22 µM,1.27 µM
COc1ccc(C[C@H](N)C(=O)N2C[C@H](CO)C[C@H](n3cnc4c(N(C)C)ncnc43)C2)cc1,> 100 µM,> 100 µM,> 100 µM,> 100 µM,> 100 µM,> 100 µM,> 100 µM,> 100 µM,> 100 µM,> 100 µM,> 100 µM,> 100 µM,> 100 µM,> 100 µM,> 100 µM,> 100 µM,> 100 µM,> 100 µM,> 100 µM,> 100 µM
COc1ccc(C[C@H](N)C(=O)N2C[C@H](CO)C[C@H](n3ccc(=O)[nH]c3=O)C2)cc1,> 100 µM,> 100 µM,> 100 µM,> 100 µM,> 100 µM,> 100 µM,> 100 µM,> 100 µM,> 100 µM,> 100 µM,> 100 µM,> 100 µM,> 100 µM,> 100 µM,> 100 µM,> 100 µM,> 100 µM,> 100 µM,> 100 µM,> 100 µM
